{"source": "patent US12329822B2", "about": "“Antimicrobial tailored chitosan” (UNIVERSITÉ DE GENÈVE, priority 2019, dated 2025)", "key": {"P. aeruginosa": {"system": "P. aeruginosa", "conditions": "native peptide; cited from earlier work"}, "S. aureus": {"system": "S. aureus", "conditions": "native peptide; cited from earlier work"}, "M. tuberculosis": {"system": "M. tuberculosis", "conditions": "native peptide; cited from earlier work"}, "E. coli": {"system": "E. coli", "conditions": "native peptide; cited from earlier work"}, "C. albicans": {"system": "C. albicans", "conditions": "native peptide; cited from earlier work"}, "P. aeruginosa (PA01)": {"system": "P. aeruginosa (PA01)", "test": "Transmission electron microscopy (TEM) on P. aeruginosa", "assay_type": "cell-based, Pseudomonas aeruginosa", "protocol": "Method 1 for Example 2: Transmission Electron Microscopy (TEM) with A3-S—C1 on P. aeruginosa\nPseudomonas aeruginosa PAO1 in the exponential phase were washed with phosphate buffered saline (PBS) and treated with 5 μg/mL Polymyxin B, 40 μg/mL G3KL and 40 or 64 μg/mL […] in M63 minimal medium. Each time, 1 ml of the bacteria were centrifuged after 15, 30 and 60 min at 12′000 rpm for 3 min and fixed overnight with 2.5% glutaraldehyde (Agar Scientific, Stansted, Essex, UK) in 0.15 M HEPES (Fluka, Buchs, Switzerland) with an osmolarity of 670 mOsm and adjusted to a pH of 7.35. The next day, PAO1 were washed with 0.15 M HEPES three times for 5 min, post fixed with 1% OsO4 (SPI Supplies, West Chester, USA) in 0.1 M Na-cacodylate-buffer (Merck, Darmstadt, Germany) at 4° C. for 1 h. Thereafter, bacteria were washed in 0.1 M Na-cacodylate-buffer three times for 5 min and dehydrated in 70, 80, and 96% ethanol (Alcosuisse, Switzerland) for 15 min each at room temperature. Subsequently, they were immersed in 100% ethanol (Merck, Darmstadt, Germany) three times for 10 min, in acetone (Merck, Darmstadt, Germany) two times for 10 min, and finally in acetone-Epon (1:1) overnight at room temperature. The next day, bacteria were embedded in Epon (Fluka, Buchs, Switzerland) and hardened at 60° C. for 5 days. […]"}}}
{"substance": "IDR-1018: linear AMP VRLIVAVRIWRR (SEQ ID NO: 9) (AMP)", "values": [{"measurement": "MIC", "setting": "P. aeruginosa", "result": 19, "unit": "µg/mL"}, {"measurement": "MIC", "setting": "S. aureus", "result": 5, "unit": "µg/mL"}, {"measurement": "MIC", "setting": "M. tuberculosis", "result": 16, "unit": "µg/mL"}]}
{"substance": "OP-145: linear AMP IGKEFKRIVERIKRFLRELVRPLR (SEQ ID NO: 12) (AMP)", "values": [{"measurement": "MIC", "setting": "P. aeruginosa", "result": "9.2 to 18.3", "unit": "µg/mL"}, {"measurement": "MIC", "setting": "E. coli", "result": "6.1 to 9.2", "unit": "µg/mL"}, {"measurement": "MIC", "setting": "C. albicans", "result": 18.3, "unit": "µg/mL"}]}
{"substance": "Polymyxin B", "values": [{"measurement": "Effect on bacterial membranes (TEM imaging)", "setting": "P. aeruginosa (PA01)", "result": "attacks only the outer membrane of the bacteria"}, {"measurement": "Effect on P. aeruginosa (PA01)", "setting": "P. aeruginosa (PA01); TEM, concentration 5 μg/mL", "result": "Attack on the outer membrane"}]}
